The values below come from patent US12593845B2 (priority 2019, dated 2026).

The test system of test [1] is apple scab pathogen (Venturia inaequalis). In words: Apple scab control test. Type of test: in vivo. As to conditions: 336 h, 125 ppm drug solution sprayed onto apple seedlings (Orin), lesion area ratio 2 weeks after inoculation. The essentials: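 Compound emulsion diluted in water to 125 ppm and sprayed on 3-4 leaf 'Orin' apple seedlings, which were inoculated with V. inaequalis conidiospores after drying and held humidified at 20° C, 12 h light/dark. Lesion area ratio scored 2 weeks post-inoculation; control value computed relative to unsprayed inoculated plants.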

Test [2] relates to wheat powdery mildew pathogen (Erysiphe graminis f. sp. tritici). As to the kind of experiment: Wheat powdery mildew control test. It is filed as in vivo. As to conditions: Blumeria graminis, 144 h; 125 ppm drug solution sprayed onto wheat seedlings (Chihoku); lesion area ratio 6 days after inoculation. On the procedure: (§1) 5 parts by weight of the dihydropyrimidine compound of the present invention, 93.5 parts by weight of N,N-dimethylformamide, and 1.5 parts by weight of polyoxyethylene sorbitan monolaurate (TWEEN® 20) were mixed and dissolved to obtain an emulsion (I) including 5% of an active ingredient.
(§2) The control value was calculated by the following expression. Control value (%)=100−{lesion area ratio in treated group/lesion area ratio in untreated group}×100 [Expression 1]
Water was added to the emulsion (I) such that the concentration of the dihydropyrimidine compound reached 125 ppm to dissolve the emulsion, and a drug solution was obtained. Subsequently, the drug solution was sprayed onto wheat seedlings (variety: “Chihoku”, leaf stage: 1 to 2) cultivated in seedling pots. After air drying, conidiospores of a wheat powdery mildew pathogen (Erysiphe graminis f. sp. tritici) were sprinkled thereon for inoculation (treated group). As a control, wheat seedlings that were not sprayed with the drug solution were inoculated in the same manner as described above (untreated group). The seedlings were left to stand in a greenhouse at 20° C.
On the 6 days after the inoculation, the leaves of the wheat seedlings were visually observed to determine the lesion area ratio, and the control value was calculated.

For test [3], the system named is wheat brown rust pathogen (Puccinia recondita). In words: Wheat brown rust control test. Type of test: in vivo. As to conditions: 288 h, 125 ppm drug solution sprayed onto wheat seedlings (Norin 61), lesion area ratio 12 days after inoculation. On the procedure:
as §1, §2
Water was added to the emulsion (I) such that the concentration of the dihydropyrimidine compound reached 125 ppm to dissolve the emulsion, and a drug solution was obtained. Subsequently, the drug solution was sprayed onto wheat seedlings (variety: “Norin 61”, leaf stage: 1 to 2) cultivated in seedling pots. After air drying, uredospores of a wheat brown rust pathogen (Puccinia recondita) were sprinkled on wheat seedlings sprayed with the drug solution for inoculation (treated group). As a control, wheat seedlings that were not sprayed with the drug solution were inoculated in the same manner as described above (untreated group). The seedlings were left to stand in a greenhouse at 20° C.
On the 12 days after the inoculation, the leaves of the wheat seedlings were visually observed to determine the lesion area ratio, and the control value was calculated.

Another test relates to Aspergillus niger. In words: Antimicrobial test against Aspergillus niger. As to conditions: 96 h, Vogel medium, 25° C., 4 days in the dark, turbidity at 405 nm, read-out: growth inhibition rate. Type of test: cell-based. Summed up:
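A. niger spores dispersed in Vogel medium with compound (DMSO solution) at 25 ppm, cultured in the dark at 25° C. for 4 days. Turbidity at 405 nm compared with untreated culture to give growth inhibition (%).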

Test [4] relates to wheat powdery mildew pathogen (Erysiphe graminis f. sp. tritici). In words: Wheat powdery mildew seed treatment test. It is filed as in vivo. As to conditions: Blumeria graminis, 168 h; seed treatment 100 g/100 kg wheat seeds (Chihoku); inoculation after 8 to 10 days; lesion area ratio 7 days after inoculation. On the procedure: as §1, §2
The emulsion (I) was used to treat seeds such that (weight of dihydropyrimidine compound)/(weight of seeds) reached 100 g/100 kg based on the wheat seeds (variety: “Chihoku”). These seeds were disseminated in pots, and after 8 to 10 days, conidiospores of a wheat powdery mildew pathogen (Erysiphe graminis f. sp. tritici) were sprinkled thereon for inoculation (treated group). As a control, wheat seedlings that were not treated with the drug were inoculated in the same manner as described above (untreated group). The seedlings were left to stand in a greenhouse at 20° C.
(§3) On the 7 days after the inoculation, the leaves of the wheat seedlings were visually observed to determine the lesion area ratio, and the control value was calculated.

The test system is the same in test [5]. In words: Wheat powdery mildew soil irrigation treatment test. Type of test: in vivo. As to conditions: Blumeria graminis, 168 h; soil irrigation with 10 ml of 100 ppm drug solution per pot, wheat (Chihoku); inoculation after 8 to 10 days; lesion area ratio 7 days after inoculation. On the procedure:
as §1, §2
Pots (5.5 cm×5.5 cm) in which wheat seeds (variety: “Chihoku”) were disseminated were irrigated with 10 ml of a drug solution prepared by adding water to the emulsion (I) so as to have a concentration of the dihydropyrimidine compound of 100 ppm. After 8 to 10 days, conidiospores of a wheat powdery mildew pathogen (Erysiphe graminis f. sp. tritici) were sprinkled thereon for inoculation (treated group). As a control, wheat seedlings that were not treated with the drug were inoculated in the same manner as described above (untreated group). The seedlings were left to stand in a greenhouse at 20° C.
as §3

The term pest or weed control denotes how far the test organism was held down. The inhibition is the drop in the measured response relative to a control, in per cent. In the case of `COc1ccc(F)cc1C(Cn1cc(/C(C)=N/OC(C)C)c(=O)n(CC(C)(C)C(=O)NC(C)C)c1=O)OCCC#N` (stereo not drawn) [A-1], the pest or weed control at 125 ppm in test [1], in test [2] and in test [3] was no less than 75% each time. In the test with Aspergillus niger, the inhibition at 25 ppm was no less than 50%.
On to `COc1ccc(F)cc1C(O)Cn1cc(/C(C)=N/OC(C)C)c(=O)n(CC(C)(C)C(=O)NC(C)C)c1=O` (stereo not drawn) [A-2], for which the pest or weed control at 125 ppm in test [1], in test [2] and in test [3] was no less than 75% in each case.
With `COc1ccc(F)cc1C(Cn1cc(C=NOCC(F)F)c(=O)n(C(C)C(=O)NC(C)C)c1=O)OCCC#N` (stereo not drawn) [A-10], the pest or weed control at 125 ppm in test [1], in test [2] and in test [3] was no less than 75% each time.
Consider `CCCON=Cc1cn(CC(OCCC#N)c2cc(F)ccc2OC)c(=O)n(C(C)C(=O)NC(C)C)c1=O` (stereo not drawn) [A-11], for which the pest or weed control at 125 ppm in test [1], in test [2] and in test [3] was no less than 75% throughout.
In the case of `COc1ccc(F)cc1C(Cn1cc(C=NOC(C)C)c(=O)n(C(C)C(=O)NC(C)C)c1=O)OCCC#N` (stereo not drawn) [A-14, 2-(3-(2-(2-cyanoethoxy)-2-(5-fluoro-2-methoxyphenyl)ethyl)-5-((isopropoxyimino)methyl)-2,6-dioxo-3,6-dihydropyrimidin-1(2H)-yl)-N-isopropylpropanamide], the pest or weed control at 125 ppm in test [1], in test [2] and in test [3] was no less than 75% in each case. Moreover, the inhibition at 25 ppm in the test with Aspergillus niger was no less than 50%.
Regarding `CCON=Cc1cn(CC(OCCC#N)c2cc(F)ccc2OC)c(=O)n(CCNC(=O)C(C)C)c1=O` (stereo not drawn) [A-17], the pest or weed control at 125 ppm in test [1], in test [2] and in test [3] was no less than 75% in each case.
For `CCON=Cc1cn(CC(OCCC#N)c2cc(F)ccc2OC)c(=O)n(C(C)C(=O)NC(C)C)c1=O` (stereo not drawn) [A-23], the pest or weed control at 125 ppm in test [1], in test [2] and in test [3] was no less than 75% each time. Moreover, in the test on Aspergillus niger, the inhibition at 25 ppm was no less than 50%.
As to `CCO/N=C(\C)c1cn(CC(OCCC#N)c2cc(F)ccc2OC)c(=O)n(CC(C)(C)C(=O)NC(C)C)c1=O` (stereo not drawn) [A-24], the pest or weed control at 125 ppm in test [1], in test [2] and in test [3] was no less than 75% each time. For the same compound, in the test on Aspergillus niger, the inhibition at 25 ppm is no less than 50%.
Turning to `CCO/N=C(\C)c1cn(CC(O)c2cc(F)ccc2OC)c(=O)n(CC(C)(C)C(=O)NC(C)C)c1=O` (stereo not drawn) [A-25], the pest or weed control at 125 ppm in test [1] and in test [3] was no less than 75% throughout.
For the compound `CCO/N=C(\C)c1cn(CC(O)c2cc(F)ccc2OC)c(=O)n(C2CCCC2NC(=O)C(C)C)c1=O` (stereo not drawn) [A-48], the pest or weed control at 125 ppm in test [1], in test [2] and in test [3] was no less than 75% each time.
`COc1ccccc1C(O)Cn1cc(/C(C)=N/OC(C)C)c(=O)n(C[C@H](C)NC(=O)C(C)C)c1=O` (stereo partly drawn) [A-58]: the pest or weed control at 125 ppm in test [1] and in test [2] was no less than 75% in each case. The pest or weed control at 100 g/100 kg seed in test [4] is no less than 75%. Also, the pest or weed control at 100 ppm in test [5] was no less than 75%. Moreover, the inhibition at 25 ppm in the test on Aspergillus niger is no less than 50%.
In the case of `COc1ccc(F)cc1C(Cn1cc(/C(C)=N/OC(C)C)c(=O)n(C[C@H](C)NC(=O)C(C)C)c1=O)OCCC#N` (stereo partly drawn) [A-63], the pest or weed control at 125 ppm in test [1], in test [2] and in test [3] was no less than 75% each time. In the test on Aspergillus niger, the inhibition at 25 ppm was no less than 50%.
In the case of `COc1ccc(F)cc1C(Cn1cc(C=NOC(C)C)c(=O)n(C(C)C(=O)N2CCCCC2)c1=O)OCCC#N` (stereo not drawn) [A-69], the pest or weed control at 125 ppm in test [2] and in test [3] was no less than 75% throughout.
In the case of `C=C1CCN(C(=O)C(C)n2c(=O)c(C=NOC(C)C)cn(CC(O)c3cc(F)ccc3OC)c2=O)CC1` (stereo not drawn) [A-70], the pest or weed control at 125 ppm in test [1], in test [2] and in test [3] was no less than 75% in each case.
On to `COc1ccc(F)cc1C(Cn1cc(C=NOC(C)C)c(=O)n(C(C)C(=O)NC2CC2)c1=O)OCCC#N` (stereo not drawn) [A-80], for which the pest or weed control at 125 ppm in test [1], in test [2] and in test [3] was no less than 75% in each case. Moreover, the inhibition at 25 ppm in the test with Aspergillus niger was no less than 50%.
Take `CCON=Cc1cn(CC(OC)c2cc(F)ccc2OC)c(=O)n(C(C)C(=O)NC(C)C)c1=O` (stereo not drawn) [A-91]: the pest or weed control at 125 ppm in test [1], in test [2] and in test [3] was no less than 75% in each case.
As for `COc1ccc(F)cc1C(Cn1cc(/C(C)=N/OC(C)C)c(=O)n(CCN(C)C(=O)C(C)C)c1=O)OC` (stereo not drawn) [A-99], the pest or weed control at 125 ppm in test [1], in test [2] and in test [3] was no less than 75% in each case.
Consider `CC[C@@H](Cn1c(=O)c(/C(C)=N/OC(C)C)cn(CC(O)c2cc(F)ccc2OC)c1=O)NC(=O)C(C)C` (stereo partly drawn) [C-154], for which the pest or weed control at 100 g/100 kg seed in test [4] was no less than 75%. Also, in test [5], the pest or weed control at 100 ppm is no less than 75%. For the same compound, the inhibition at 25 ppm with Aspergillus niger was no less than 50%.
In the case of `C=Cc1ccccc1C(O)Cn1cc(/C(C)=N/OC(C)C)c(=O)n(C[C@H](C)NC(=O)C(C)C)c1=O` (stereo partly drawn) [C-160], in test [4], the pest or weed control at 100 g/100 kg seed was no less than 75%. For the same compound, in test [5], the pest or weed control at 100 ppm was no less than 75%. In addition, the inhibition at 25 ppm with Aspergillus niger is no less than 50%.
Regarding `COc1ccccc1C(O)Cn1cc(/C(C)=N/OC(C)C)c(=O)n(C[C@@H](NC(=O)C(C)C)C(C)C)c1=O` (stereo partly drawn) [C-170], the pest or weed control at 100 g/100 kg seed in test [4] was no less than 75%. Also, in test [5], the pest or weed control at 100 ppm is no less than 75%. Moreover, the inhibition at 25 ppm in the test with Aspergillus niger is no less than 50%.
As to `COc1ccc(F)cc1C(O)Cn1cc(/C(C)=N/OC(C)C)c(=O)n(C[C@H](C)NC(=O)N(C)C)c1=O` (stereo partly drawn) [C-179], the pest or weed control at 100 g/100 kg seed in test [4] was no less than 75%. For the same compound, the pest or weed control at 100 ppm in test [5] was no less than 75%. Moreover, the inhibition at 25 ppm in the test on Aspergillus niger is no less than 50%.
With `CCc1ccccc1C(O)Cn1cc(/C(C)=N/OC(C)C)c(=O)n(C[C@H](C)NC(=O)C(C)C)c1=O` (stereo partly drawn) [C-197], the pest or weed control at 100 g/100 kg seed in test [4] is no less than 75%. Also, the pest or weed control at 100 ppm in test [5] was no less than 75%. Moreover, the inhibition at 25 ppm in the test with Aspergillus niger is no less than 50%.
Regarding `COc1ccc(F)cc1C(O)Cn1cc(/C(C)=N/OC(C)C)c(=O)n(C[C@H](CC(C)C)NC(=O)C(C)C)c1=O` (stereo partly drawn) [C-199], the pest or weed control at 100 g/100 kg seed in test [4] was no less than 75%. The pest or weed control at 100 ppm in test [5] was no less than 75%. The inhibition at 25 ppm in the test with Aspergillus niger is no less than 50%.
In the case of `COc1ccc(F)cc1C(O)Cn1cc(/C(C)=N/OC(C)C)c(=O)n(C[C@@H](NC(C)=O)C(C)C)c1=O` (stereo partly drawn) [C-207], the pest or weed control at 100 g/100 kg seed in test [4] was no less than 75%. Further, the pest or weed control at 100 ppm in test [5] was no less than 75%. Also, in the test with Aspergillus niger, the inhibition at 25 ppm was no less than 50%.
With `COc1ccc(F)cc1C(O)Cn1cc(/C(C)=N/OC(C)C)c(=O)n(C[C@@H](NC(=O)C(C)C)C(C)C)c1=O` (stereo partly drawn) [C-210], the pest or weed control at 100 g/100 kg seed in test [4] is no less than 75%. In test [5], the pest or weed control at 100 ppm was no less than 75%. Also, the inhibition at 25 ppm with Aspergillus niger was no less than 50%.
